Our source for the IC50 values is patent US9504669B2, “Spliceostatin analogs and methods for their preparation” (PFIZER INC., priority 2012, dated 2016).

Type in all cases: cell-based
Common to all, as to settings: free compounds (natural products and synthetic analogs), cell viability 96 hours after treatment

Experiment [1] has as its system N87 (gastric cancer) cells. Description: In vitro cell assay (MTS cell viability), N87. Summed up:
(§1)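 Cells seeded 24 h, then treated with antibody-drug conjugates or free drug, 3-fold serial dilutions at 10 concentrations in duplicate. Viability by MTS at 96 h as percent of untreated control; IC50 from four-parameter logistic fit.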

Experiment [2] relates to BT474 (breast cancer) cells. Put plainly: In vitro cell assay (MTS cell viability), BT474. Here is the method: Target expressing (BT474 (breast cancer), N87 (gastric cancer), HCC1954 (breast cancer), MDA-MB-361-DYT2 (breast cancer)) or non-expressing (MDA-MB-468) cells were seeded in 96-well cell culture plates for 24 hours before treatment. Cells were treated with 3-fold serially diluted antibody-drug conjugates or free compounds (i.e., no antibody conjugated to the drug) in duplicate at 10 concentrations. Cell viability was determined by CellTiter 96® AQueous One Solution Cell Proliferation MTS Assay (Promega, Madison Wis.) 96 hours after treatment. Relative cell viability was determined as percentage of untreated control. IC50 values were calculated using a four parameter logistic model #203 with XLfit v4.2 (IDBS, Guildford, Surry, UK). The potency ranged upward from 0.0002 nm. Similar procedures and techniques were employed.

Experiment [3] deals with MDA-MB-361-DYT2 (breast cancer) cells. Description: In vitro cell assay (MTS cell viability), MDA-MB-361-DYT2. The method, boiled down: as §1

As for `CSCCN(C)C(=O)C[C@@H]1C[C@@]2(CO2)[C@H](O)[C@@H](/C=C/C(C)=C/C[C@@H]2O[C@H](C)[C@H](NC(=O)/C=C\[C@H](C)OC(C)=O)C[C@@H]2C)O1` [#B82, (2S,3Z)-5-{[(2R,3R,5S,6S)-6-{(2E,4E)-5-[(3R,4R,5R,7S)-4-hydroxy-7-(2-{methyl[2-(methylsulfanyl)ethyl]amino}-2-oxoethyl)-1,6-dioxaspiro[2.5]oct-5-yl]-3-methylpenta-2,4-dien-1-yl}-2,5-dimethyltetrahydro-2H-pyran-3-yl]amino}-5-oxopent-3-en-2-yl acetate], the half-maximal inhibitory concentration (IC50) (commonly the point on the concentration scale where inhibition reaches its midpoint) in experiment [1] (96 h) turned out to be 0.12 nM; in experiment [2] (Homo sapiens, BT-474) it was 0.288 nM; in experiment [3] (96 h), 0.251 nM.
For `CNc1cccc(CNC(=O)C[C@@H]2C[C@@]3(CO3)[C@H](O)[C@@H](/C=C/C(C)=C/C[C@@H]3O[C@H](C)[C@H](NC(=O)/C=C\[C@H](C)OC(C)=O)C[C@@H]3C)O2)c1` [#B83, (2S,3Z)-5-{[(2R,3R,5S,6S)-6-{(2E,4E)-5-[(3R,4R,5R,7S)-4-hydroxy-7-(2-{[3-(methylamino)benzyl]amino}-2-oxoethyl)-1,6-dioxaspiro[2.5]oct-5-yl]-3-methylpenta-2,4-dien-1-yl}-2,5-dimethyltetrahydro-2H-pyran-3-yl]amino}-5-oxopent-3-en-2-yl acetate] the same measures were 1.05 nM, 1.45 nM and 2.59 nM.
The corresponding values for `CC(=O)O[C@@H](C)/C=C\C(=O)N[C@@H]1C[C@H](C)[C@H](C/C=C(C)/C=C/[C@H]2O[C@H](CC(=O)NCc3ccc(N)cc3F)C[C@@]3(CO3)[C@@H]2O)O[C@@H]1C` [#B84, (2S,3Z)-5-{[(2R,3R,5S,6S)-6-{(2E,4E)-5-[(3R,4R,5R,7S)-7-{2-[(4-amino-2-fluorobenzyl)amino]-2-oxoethyl}-4-hydroxy-1,6-dioxaspiro[2.5]oct-5-yl]-3-methylpenta-2,4-dien-1-yl}-2,5-dimethyltetrahydro-2H-pyran-3-yl]amino}-5-oxopent-3-en-2-yl acetate] are 2.54 nM, 2.53 nM and 8.27 nM.
For `CC(=O)O[C@@H](C)/C=C\C(=O)N[C@@H]1C[C@H](C)[C@H](C/C=C(C)/C=C/[C@H]2O[C@H](CC(=O)NCc3ccc(N)c(F)c3)C[C@@]3(CO3)[C@@H]2O)O[C@@H]1C` [#B85, (2S,3Z)-5-{[(2R,3R,5S,6S)-6-{(2E,4E)-5-[(3R,4R,5R,7S)-7-{2-[(4-amino-3-fluorobenzyl)amino]-2-oxoethyl}-4-hydroxy-1,6-dioxaspiro[2.5]oct-5-yl]-3-methylpenta-2,4-dien-1-yl}-2,5-dimethyltetrahydro-2H-pyran-3-yl]amino}-5-oxopent-3-en-2-yl acetate] the same measures were 1.56 nM, 1.47 nM and 5.5 nM.
Turning to `CC(=O)O[C@@H](C)/C=C\C(=O)N[C@@H]1C[C@H](C)[C@H](C/C=C(C)/C=C/[C@H]2O[C@H](CC(=O)NCc3ccc(N)c(C(F)(F)F)c3)C[C@@]3(CO3)[C@@H]2O)O[C@@H]1C` [#B88, (2S,3Z)-5-{[(2R,3R,5S,6S)-6-{(2E,4E)-5-[(3R,4R,5R,7S)-7-(2-{[4-amino-3-(trifluoromethyl)benzyl]amino}-2-oxoethyl)-4-hydroxy-1,6-dioxaspiro[2.5]oct-5-yl]-3-methylpenta-2,4-dien-1-yl}-2,5-dimethyltetrahydro-2H-pyran-3-yl]amino}-5-oxopent-3-en-2-yl acetate], the IC50 stood at 0.73 nM in experiment [1] (96 h); 1.8 nM in experiment [2] (Homo sapiens, BT-474); 2.96 nM in experiment [3] (96 h).
For `CC(=O)O[C@@H](C)/C=C\C(=O)N[C@@H]1C[C@H](C)[C@H](C/C=C(C)/C=C/[C@H]2O[C@H](CC(=O)NCc3cccc(N)c3)C[C@@]3(CO3)[C@@H]2O)O[C@@H]1C` [#B89, (2S,3Z)-5-{[(2R,3R,5S,6S)-6-{(2E,4E)-5-[(3R,4R,5R,7S)-7-{2-[(3-aminobenzyl)amino]-2-oxoethyl}-4-hydroxy-1,6-dioxaspiro[2.5]oct-5-yl]-3-methylpenta-2,4-dien-1-yl}-2,5-dimethyltetrahydro-2H-pyran-3-yl]amino}-5-oxopent-3-en-2-yl acetate] the same measures were 1.91 nM, 3.56 nM and 7.99 nM.
For `CC(=O)O[C@@H](C)/C=C\C(=O)N[C@@H]1C[C@H](C)[C@H](C/C=C(C)/C=C/[C@H]2O[C@H](CC(=O)N(C)Cc3ccc(S(=O)(=O)N(C)C)cc3)C[C@@]3(CO3)[C@@H]2O)O[C@@H]1C` [#B91, (2S,3Z)-5-{[(2R,3R,5S,6S)-6-{(2E,4E)-5-[(3R,4R,5R,7S)-7-(2-{[4-(dimethylsulfamoyl)benzyl](methyl)amino}-2-oxoethyl)-4-hydroxy-1,6-dioxaspiro[2.5]oct-5-yl]-3-methylpenta-2,4-dien-1-yl}-2,5-dimethyltetrahydro-2H-pyran-3-yl]amino}-5-oxopent-3-en-2-yl acetate] the same measures were 0.783 nM, 3.02 nM and 3.78 nM.
For `CC(=O)O[C@@H](C)/C=C\C(=O)N[C@@H]1C[C@H](C)[C@H](C/C=C(C)/C=C/[C@H]2O[C@H](CC(=O)NCc3cc(N)ccc3F)C[C@@]3(CO3)[C@@H]2O)O[C@@H]1C` [#B92, (2S,3Z)-5-{[(2R,3R,5S,6S)-6-{(2E,4E)-5-[(3R,4R,5R,7S)-7-{2-[(5-amino-2-fluorobenzyl)amino]-2-oxoethyl}-4-hydroxy-1,6-dioxaspiro[2.5]oct-5-yl]-3-methylpenta-2,4-dien-1-yl}-2,5-dimethyltetrahydro-2H-pyran-3-yl]amino}-5-oxopent-3-en-2-yl acetate] the same measures were 1.5 nM, 2.28 nM and 6.18 nM.
Take `CC(=O)O[C@@H](C)/C=C\C(=O)N[C@@H]1C[C@H](C)[C@H](C/C=C(C)/C=C/[C@H]2O[C@H](CC(=O)NCc3ccc(S(=O)(=O)N(C)C)cc3)C[C@@]3(CO3)[C@@H]2O)O[C@@H]1C` [#B93, (2S,3Z)-5-{[(2R,3R,5S,6S)-6-{(2E,4E)-5-[(3R,4R,5R,7S)-7-(2-{[4-(dimethylsulfamoyl)benzyl]amino}-2-oxoethyl)-4-hydroxy-1,6-dioxaspiro[2.5]oct-5-yl]-3-methylpenta-2,4-dien-1-yl}-2,5-dimethyltetrahydro-2H-pyran-3-yl[amino}-5-oxopent-3-en-2-yl acetate]: the IC50 in experiment [1] came out at 0.647 nM; in experiment [2] it was 2.27 nM; in experiment [3], 3.96 nM.
Turning to `CNS(=O)(=O)c1ccc(CNC(=O)C[C@@H]2C[C@@]3(CO3)[C@H](O)[C@@H](/C=C/C(C)=C/C[C@@H]3O[C@H](C)[C@H](NC(=O)/C=C\[C@H](C)OC(C)=O)C[C@@H]3C)O2)cc1` [#B94, (2S,3Z)-5-{[(2R,3R,5S,6S)-6-{(2E,4E)-5-[(3R,4R,5R,7S)-4-hydroxy-7-(2-{[4-(methylsulfamoyl)benzyl]amino}-2-oxoethyl)-1,6-dioxaspiro[2.5]oct-5-yl]-3-methylpenta-2,4-dien-1-yl}-2,5-dimethyltetrahydro-2H-pyran-3-yl]amino}-5-oxopent-3-en-2-yl acetate], the IC50 in experiment [1] (96 h) was 4.9 nM; in experiment [2] (Homo sapiens, BT-474), 18.6 nM; in experiment [3] (96 h) it was 37.4 nM.
